Source: US5756776A, “Semi-synthetic taxanes with anti-tumoural activity” (Indena S.p.A., priority 1994, dated 1998)

Legend:
Assay type in all cases: cell-based
L1210 (murine leukemia) = test: cytotoxic effect on L1210 tumour cell line (comparison with taxol); details: exposure time 48 h, RPMI 1640 + 20 mM HEPES + 2 mM L-glutamine
Method: (§1) The products of the present invention were screened for their cytotoxic effect on different tumour cell lines, comparing their action with that of taxol.
(§2) Standard conditions: substrate RPMI 1640 + 20 mM HEPES + 2 mM Lglutamine.

A121 (Human ovarian) = test: cytotoxic effect on A121 tumour cell line (comparison with taxol); details: exposure time 72 h, RPMI 1640 + 20 mM HEPES + 2 mM L-glutamine
Method: as §1, §2

A549 (Human NSCLC) = test: cytotoxic effect on A549 tumour cell line (comparison with taxol); details: exposure time 72 h, RPMI 1640 + 20 mM HEPES + 2 mM L-glutamine
Method: as §1, §2

HT-29 (Human colon) = test: cytotoxic effect on HT-29 tumour cell line (comparison with taxol); details: exposure time 72 h, RPMI 1640 + 20 mM HEPES + 2 mM L-glutamine
Method: as §1, §2

MCF7 (Human breast) = test: cytotoxic effect on MCF7 tumour cell line (comparison with taxol); details: exposure time 72 h, RPMI 1640 + 20 mM HEPES + 2 mM L-glutamine
Method: as §1, §2

MCF7-ADR (resistant) = test: cytotoxic effect on MCF7-ADR resistant tumour cell line (comparison with taxol); details: exposure time 72 h, RPMI 1640 + 20 mM HEPES + 2 mM L-glutamine
Method: as §1, §2

Molecule | IC50 (L1210 (murine leukemia)) [nM] | IC50 (A121 (Human ovarian)) [nM] | IC50 (A549 (Human NSCLC)) [nM] | IC50 (HT-29 (Human colon)) [nM] | IC50 (MCF7 (Human breast)) [nM] | IC50 (MCF7-ADR (resistant)) [nM] | IC50 (L1210 (murine leukemia); Mus musculus) [nM] | IC50 (MCF7-ADR (resistant); Homo sapiens, NCI/ADR-RES) [nM]
13-[(2R, 3S)-3-phenyl-2-hydroxy-3-tert-butoxycarbonylamino-propanoyl]-10-deacetyl-11,12-dihydrobaccatine III [1b] | 32 ± 0.1 | 1.6 ± 0.2 | 2.1 ± 0.3 | 3.6 ± 0.4 | 0.8 ± 0.2 | 128 ± 6.2 |  | 
CC(=O)O[C@@]12CO[C@@H]1C[C@H](O)[C@@]1(C)C(=O)[C@@H](O)C3=C(C)[C@@H](OC(=O)[C@H](O)[C@@H](NC(=O)OC(C)(C)C)c4ccccc4)C[C@@](O)([C@@H](OC(=O)c4ccccc4)[C@H]21)C3(C)C [1a, 13-[(2R, 3S)-3-phenyl-2-hydroxy-3-tert-butoxycarbonylamino-propanoyl]-10-epi-10-deacetylbaccatine III] |  | 2.8 ± 0.3 | 6.9 ± 0.3 | 3.4 ± 0.1 | 2.2 ± 0.2 |  | 46 ± 2.1 | 130 ± 2.2
CC(=O)O[C@@]1([C@@H]2C(C)=C(O)C(=O)C3=C(C)[C@@H](OC(=O)[C@H](O)[C@@H](NC(=O)OC(C)(C)C)c4ccccc4)C[C@@](O)([C@H]2OC(=O)c2ccccc2)C3(C)C)CO[C@@H]1CCO [5a, 13-[(2R, 3S)-3-phenyl-2-hydroxy-3-tert-butoxy-carbonylamino-propanoyl]-C-seco-10-deacetylbaccatine III] |  | 1.9 | 3.3 | 3.2 | 1.5 |  | 35 ± 1.2 | 31.3
